Reference: paper PMC12449377, “Psychedelic-like effects induced by 2,5-dimethoxy-4-iodoamphetamine, lysergic acid diethylamide, and psilocybin in male and female C57BL/6J mice” (Psychopharmacology, 2025)
Read-outs that look alike come from different tables or passages of the source.

Experiments:
[1] = molecular target: T1, 5-HT2A (Mus musculus, UniProt P35363); experiment: Competition binding vs [3H]M100907 in mouse brain membranes
T1 construct: tissue BioIVT; host or cells: whole C57BL/6 mouse brain minus cerebellum, male and female
Procedure: (§1) Competition binding studies were conducted in mouse brain tissue as previously described (Glatfelter et al. [2022b]). Briefly, the experiments utilized membranes prepared from whole C57BL/6 mouse brain minus cerebellum (BioIVT, Westbury, NY, USA). […] We assessed the ability of test drugs to compete for [^3H]M100907 binding at 5-HT2A (1 nM) or [^3H]8-OH-DPAT binding at 5-HT1A (0.5 nM). Radioligands were purchased commercially (PerkinElmer, Boston, MA, USA). Nonspecific binding was determined using 10 µM ketanserin for 5-HT2A and serotonin for 5-HT1A. All data represent 3 experiments performed in triplicate.
(§2) Concentration-response data were fit to a single site non-linear regression model. For the HTR studies, potencies were determined from the ascending limb of the dose-response curves using ED50 potency values from [agonist] vs. response (variable slope, four parameter) least squares fit non-linear regression analyses, whereas efficacy was defined by the top output parameter or Emax from the aforementioned analyses. […] Best-fit values for ED50 and Emax from non-linear regression analyses were compared by extra sum-of-squares F tests. Mean effects for each behavioral endpoint were compared using two-way ANOVA (dose x sex), followed by Sidak’s multiple comparisons post-hoc test. Mean effects for pooled mouse behavioral data were compared via Welch’s ANOVA with Dunnett’s T3 post-hoc test, comparing all doses to saline vehicle controls (0 mg/kg). Alpha was set to 0.05 for all analyses.

[2] = molecular target: T2, 5-HT1A (Mus musculus, UniProt Q64264); experiment: Competition binding vs [3H]8-OH-DPAT in mouse brain membranes
T2 construct: tissue BioIVT; host or cells: whole C57BL/6 mouse brain minus cerebellum, male and female
T2 sequence (Q64264 1-421): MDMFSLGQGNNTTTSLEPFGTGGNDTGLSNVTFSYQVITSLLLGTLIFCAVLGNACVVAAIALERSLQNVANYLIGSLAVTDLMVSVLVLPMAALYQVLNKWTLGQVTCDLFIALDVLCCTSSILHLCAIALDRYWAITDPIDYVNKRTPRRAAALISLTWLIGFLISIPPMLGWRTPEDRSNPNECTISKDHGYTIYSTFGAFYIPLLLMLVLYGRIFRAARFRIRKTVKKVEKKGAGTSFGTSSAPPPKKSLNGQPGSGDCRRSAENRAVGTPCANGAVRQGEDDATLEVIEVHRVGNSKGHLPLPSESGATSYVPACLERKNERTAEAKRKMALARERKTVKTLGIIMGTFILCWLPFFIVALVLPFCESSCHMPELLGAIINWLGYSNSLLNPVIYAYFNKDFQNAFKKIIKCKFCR
Procedure: as §1, §2

[3] = system: C57BL/6J mice; experiment: Head twitch response (HTR) in mice; type: in vivo, mouse; settings: for HTR (total events) Mean: 30 min; for ED50: Mus musculus, sc
Procedure: Each drug was tested using groups of 12 mice per sex (i.e., 24 total mice per drug). Experimental sessions were conducted once every 1–2 weeks for 2 months per drug. Experimental sessions were spaced apart by at least 1 week to minimize the potential for tolerance to drug effects (Canal and Morgan [2012]; Darmani et al. [1990a]; de la Fuente Revenga et al. [2022]). Experiments were conducted during the light phase (1300–1700 local time; lights on = 0700 in a 12/12 light/dark cycle).
(§3) At 1–2 weeks prior to the beginning of experiments, mice were habituated to handling and receiving s.c. saline injections. On the day of an experiment, mice were acclimated to the testing room in their home cage for at least 30 min prior to the start of sessions. Prior to each session, mice were weighed, and resting body temperatures were recorded. Mice were then placed into experimental chambers for acclimation. Behavioral testing was carried out in TruScan mouse locomotor arenas equipped with photobeam arrays (Coulbourn Instruments, Holliston, MA, USA) that were modified with cylindrical inserts and transparent flooring to aid in semi-automated HTR detection as previously described (Glatfelter et al. [2022a]). After 5 min of acclimation, basal body temperature was recorded followed by s.c. injection of drug or vehicle, and mice were returned to test chambers for 30 min. Dose ranges for each drug were 0.03–10 mg/kg for DOI, 0.03–10 mg/kg for psilocybin, and 0.003–1 mg/kg for LSD. Mice were randomly assigned to specific doses at the beginning of the experiment and received different doses at each session.
(§4) During each session, locomotor activity was quantified via photobeam tracking of distance traveled in cm. Overhead GoPro Hero Black 7 video recordings (120 fps, 960p resolution) were analyzed using a commercially available software package from Clever Sys Inc. (Reston, VA, USA) for the measurement of HTR activity. Mouse body temperature was also collected post-session to calculate temperature change values (basal - post session temperature reading).
as §2

[4] = system: C57BL/6J mice; experiment: Body temperature change in mice; type: in vivo, mouse; settings: for Body Temp Δ (°C) Mean: post 30 min session
Procedure: All mice were injected s.c. with temperature transponders (14 × 2 mm, model IPTT-300, Avidity Science, Waterford Wisconsin, USA) under brief isoflurane immobilization, and were given at least 1 week to recover (Glatfelter et al. [2022b]). Mice were single housed post-implant, and for the duration of the experiments, to protect their devices from being removed by cage mates. Temperature was measured noninvasively using a handheld reader which is sensitive to the transponder signals.
as §3, §4, §2

T1 sequence (P35363 whole entry): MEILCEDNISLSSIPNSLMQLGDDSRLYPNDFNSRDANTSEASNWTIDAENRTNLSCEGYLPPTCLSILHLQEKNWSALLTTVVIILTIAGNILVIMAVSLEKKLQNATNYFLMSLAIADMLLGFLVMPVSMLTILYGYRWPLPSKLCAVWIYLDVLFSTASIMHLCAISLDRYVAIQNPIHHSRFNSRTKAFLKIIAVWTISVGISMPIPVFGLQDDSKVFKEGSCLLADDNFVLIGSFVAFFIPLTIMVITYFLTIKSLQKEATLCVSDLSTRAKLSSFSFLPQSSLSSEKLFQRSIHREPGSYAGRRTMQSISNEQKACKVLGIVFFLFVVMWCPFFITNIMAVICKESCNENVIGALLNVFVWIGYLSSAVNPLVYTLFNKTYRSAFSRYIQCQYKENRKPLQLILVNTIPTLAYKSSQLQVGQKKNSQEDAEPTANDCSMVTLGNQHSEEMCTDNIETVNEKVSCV

CCN(CC)C(=O)[C@@H]1C=C2c3cccc4[nH]cc(c34)C[C@H]2N(C)C1 [LSD, lysergic acid diethylamide]
Ki ([1]; 5-HT2A binding affinity (Ki), males and females, male and female mouse brain membranes, summary statement): 1 to 100 nM
Ki ([1]; [3H]M100907 Binding ♀ m5-HT2A Ki, female mouse brain membranes): 1.9 nM
Ki ([1]; [3H]M100907 Binding ♂ m5-HT2A Ki, male mouse brain membranes): 2.3 nM
Ki ([2]; 5-HT1A binding affinity (Ki), males and females, male and female mouse brain membranes, summary statement): 1 to 100 nM
Ki ([2]; [3H]8-OH-DPAT Binding ♀ m5-HT1A Ki, female mouse brain membranes): 0.95 nM
Ki ([2]; [3H]8-OH-DPAT Binding ♂ m5-HT1A Ki, male mouse brain membranes): 1.02 nM
HTR (total events) Mean ([3]; 0.003 mg/kg s.c., female mice): 6.5 total events
HTR (total events) Mean ([3]; 0.003 mg/kg s.c., male mice): 6.3 total events
HTR (total events) Mean ([3]; 0.003 mg/kg s.c., pooled sexes): 6.4 total events
HTR (total events) Mean ([3]; 0.01 mg/kg s.c., female mice): 10.7 total events
HTR (total events) Mean ([3]; 0.01 mg/kg s.c., male mice): 13.5 total events
HTR (total events) Mean ([3]; 0.01 mg/kg s.c., pooled sexes): 12.1 total events
HTR (total events) Mean ([3]; 0.03 mg/kg s.c., female mice): 24.2 total events
HTR (total events) Mean ([3]; 0.03 mg/kg s.c., male mice): 29.7 total events
HTR (total events) Mean ([3]; 0.03 mg/kg s.c., pooled sexes): 27.2 total events
HTR (total events) Mean ([3]; 0.1 mg/kg s.c., female mice): 43.5 total events
HTR (total events) Mean ([3]; 0.1 mg/kg s.c., male mice): 43.7 total events
HTR (total events) Mean ([3]; 0.1 mg/kg s.c., pooled sexes): 43.6 total events
HTR (total events) Mean ([3]; 0.3 mg/kg s.c., female mice): 55.8 total events
HTR (total events) Mean ([3]; 0.3 mg/kg s.c., male mice): 45.0 total events
HTR (total events) Mean ([3]; 0.3 mg/kg s.c., pooled sexes): 50.4 total events
HTR (total events) Mean ([3]; 1 mg/kg s.c., female mice): 38.0 total events
HTR (total events) Mean ([3]; 1 mg/kg s.c., male mice): 26.2 total events
HTR (total events) Mean ([3]; 1 mg/kg s.c., pooled sexes): 32.1 total events
ED50 ([3]; female mice, ascending limb of dose-response curve, read-out: HTR ♀ ED50 (95% CI)): 0.051 mg/kg
ED50 ([3]; male mice, ascending limb of dose-response curve, read-out: HTR ♂ ED50 (95% CI)): 0.024 mg/kg
ED50 ([3]; pooled male and female mice, read-out: HTR ♂+♀ ED50 (95% CI)): 0.035 mg/kg
Duration of HTR effect in the session ([3]; peak/active doses, 30 min session): trended to baseline levels by the end of the testing session
Time of peak effects on HTR post drug administration ([3]; s.c., both sexes, 30 min session): 5 to 10 min
HTR ♀ Emax (95% CI) ([3]; s.c., female mice, top of regression fit): 58 (50–68) HTR events
HTR ♂ Emax (95% CI) ([3]; s.c., male mice, top of regression fit): 46 (44–50) HTR events
HTR ♂+♀ Emax (95% CI) ([3]; s.c., pooled male and female mice): 51 (46–60) HTR events
Body Temp Δ (°C) Mean ([4]; 0.003 mg/kg s.c., female mice): -0.1 °C
Body Temp Δ (°C) Mean ([4]; 0.003 mg/kg s.c., male mice): -0.1 °C
Body Temp Δ (°C) Mean ([4]; 0.003 mg/kg s.c., pooled sexes): -0.1 °C
Body Temp Δ (°C) Mean ([4]; 0.01 mg/kg s.c., female mice): -0.1 °C
Body Temp Δ (°C) Mean ([4]; 0.01 mg/kg s.c., male mice): 0.3 °C
Body Temp Δ (°C) Mean ([4]; 0.01 mg/kg s.c., pooled sexes): 0.1 °C
Body Temp Δ (°C) Mean ([4]; 0.03 mg/kg s.c., female mice): -0.1 °C
Body Temp Δ (°C) Mean ([4]; 0.03 mg/kg s.c., male mice): 0.0 °C
Body Temp Δ (°C) Mean ([4]; 0.03 mg/kg s.c., pooled sexes): -0.1 °C
Body Temp Δ (°C) Mean ([4]; 0.1 mg/kg s.c., female mice): -0.3 °C
Body Temp Δ (°C) Mean ([4]; 0.1 mg/kg s.c., male mice): -0.1 °C
Body Temp Δ (°C) Mean ([4]; 0.1 mg/kg s.c., pooled sexes): -0.2 °C
Body Temp Δ (°C) Mean ([4]; 0.3 mg/kg s.c., female mice): -0.4 °C
Body Temp Δ (°C) Mean ([4]; 0.3 mg/kg s.c., male mice): -0.1 °C
Body Temp Δ (°C) Mean ([4]; 0.3 mg/kg s.c., pooled sexes): -0.2 °C
Body temperature effect at highest dose ([4]; 1 mg/kg s.c.): mild hypothermia
Body Temp Δ (°C) Mean ([4]; 1 mg/kg s.c., female mice): -0.9 °C
Body Temp Δ (°C) Mean ([4]; 1 mg/kg s.c., male mice): -1.5 °C
Body Temp Δ (°C) Mean ([4]; 1 mg/kg s.c., pooled sexes): -1.2 °C
